Test results: US20220054494A1, “METHODS FOR TREATING BLADDER AND URETHRA DYSFUNCTION AND DISEASE” (University of Pittsburgh - Of the Commonwealth System of …, priority 2019, published 2022)
Entries after “also recorded” stand apart in the source; their conditions may differ.

Tests used:
p16 = test: Western immunoblotting, senescence marker p16; format: in vivo, rat
Protocol: Western immunoblotting and transmission electron microscopy: Following these testing paradigms, rats were deeply anesthetized, bladders were removed, and one half of each bladder (using the smooth muscle layer) was homogenized using Lysing Matrix D in a FASTPREP-24™ instrument (MP BIOMEDICALS™, Solon, Ohio) in HBSS (5 mM KCl, 0.3 mM KH2PO4, 138 mM NaCl, 4 mM NaHO3, 0.3 mM Na2HCO3, 0.3 mM Na2HPO4, 5.6 mM glucose and 10 mM Hepes, pH 7.4) containing complete protease inhibitor cocktail (1 tablet/10 ml, ROCHE™, Indianapolis, Ind.) and phosphatase inhibitor cocktail (SIGMA®, 1:100). Whole rat kidney was also homogenized using the same procedure. After centrifugation (13000 rpm; 15 min at 4° C.), the membrane protein fraction was prepared by suspending the membrane pellets in lysis buffer containing 0.3 M NaCl, 50 mM Tris-HCl (pH 7.6), 0.5% Triton X-100, and the same concentration of protease inhibitors as above. […] The protein concentrations of the combined supernatants were determined using the PIERCE™ BCA protein assay (THERMO SCIENTIFIC™, Rockford, Ill.). […] As a loading control, total protein per sample was determined using BIO-RAD™ Stain Free SDS-PAGE gel technology. UV-activated protein fluorescence was imaged on a CHEMIDOC™ MP (BIO-RAD™). […] The volume (intensity) of each protein species was determined and normalized to total protein using Image Lab software (BIO-RAD™). […]

hydroxyproline = test: Hydroxyproline in detrusor smooth muscle (indicator of fibrosis); format: in vivo, rat; settings: aged rats; oral 8-AG 5 mg/kg/day, 6 weeks

Nc1nc2[nH]c(N)nc2c(=O)[nH]1 [8-AG, 8-Aminoguanine]
senescence marker p16 in bladder smooth muscle (p16; aged Fisher 344 rats, 8-AG 5 mg kg/day via drinking water, 1 month): restored to a younger state; also recorded: restored to levels similar to the younger state | senescence marker p16 in detrusor smooth muscle (p16; aged rats, oral 8-AG 5 mg/kg/day, 6 weeks): levels similar to the younger state; also recorded: restored these biomarkers to that of a younger state | hydroxyproline in detrusor smooth muscle (hydroxyproline): levels similar to the younger state; also recorded: restored these biomarkers to that of a younger state
